Paper PMC5322882, “Alterations in cellular pharmacokinetics and pharmacodynamics of elvitegravir in response to ethanol exposure in HIV-1 infected monocytic (U1) cells” (PLoS ONE, 2017)

How the values were obtained:
[1] = Intracellular elvitegravir concentration-time profile (cellular pharmacokinetics) in U1 cells, LC-MS/MS; assay type: in vitro ADME; conditions: human, intracellular EVG in U1 cells
Description: (§1) HIV-infected U937 cell line—the U1 cells were obtained through the NIH AIDS Reagent Program (Germantown, MD). U1 cells were cultured in Roswell Park Memorial Institute (RPMI) 1640 media (Corning Inc, Tewksbury, MA) supplemented with 10% fetal bovine serum (Atlanta biologicals, Atlanta, GA), 1% L-glutamine, nonessential amino acid solution, sodium bicarbonate, and penicillin-streptomycin solution. Cells were plated at 0.9x10^6 cells/well of 6-well plates and were differentiated into macrophages with 100 nM Phorbol 12-myristate 13-acetate (PMA) for 72 hours prior to treatment. On the day of experiment, medium was removed and cells were washed twice with PBS and treated with media containing clinically relevant concentrations of (a) EVG (5 μM), (b) EVG+COBI (2 μM), (c) EVG+ethanol (20 mM), (d) EVG+COBI+ethanol. Ethanol-treated plates were placed in an incubator that humidified with 20 mM ethanol to prevent any loss of ethanol due to evaporation.
(§2) At predetermined time points (0.5, 1, 3, 6, 12, and 24 hours), cells were collected for concentration-time profile experiments and medium was collected for HIV p24 measurement. At each time point, cells were washed twice with PBS and incubated with 400 μL of cold Radioimmunoprecipitation assay (RIPA) buffer for 10 minutes and the cell lysates were collected.
(§3) A previously reported LC-MS/MS method was used to quantitate EVG in cell lysates, culture medium, and plasma samples used in this study. Calibrants (0.003, 0.006, 0.013, 0.025, 0.05, 0.1, 0.15, 0.25, 0.5, and 1 μM) were prepared by serial dilution approach with the corresponding working solutions. EVG extraction from the calibrants and study samples was performed by adding 3-volumes of cold acetonitrile which contained a 138 nM ritonavir (RTV) as internal standard (IS). All samples were centrifuged at 8000 rpm for 10 minutes at 4°C and clear supernatants were transferred into vails with low-volume inserts for LC-MS/MS analysis. Samples (5 μL) were injected onto a Waters Xterra® MS C18 Column (125Å, 3.5 μ, 4.6 X 50 mm) (Waters Corporation, Milford, MA) attached to a Shimadzu Nexera HPLC system coupled with a tandem mass spectrometer (Triple Quad 5500 from AB SCIEX, Framingham, MA) with electron spray ionization in positive mode. Data was acquired and analyzed with the Analyst software package (ver.1.6.2, AB SCIEX, Framingham, MA). Concentrations were quantified by the Quantitative Analysis module (Analyst ver 1.6.2, AB SCIEX, Framingham, MA) from a standard curve fitted with a linear-regression model with a weighting factor of 1/x^2.
(§4) The concentration-time profiles were analyzed by non-compartmental modeling using Phoenix WinNonlin 6.4 (Certara L.P., Princeton, NJ). Area under the curve (AUCtot) was calculated by the log trapezoidal rule by log-linear regression. The maximum concentration achieved (Cmax) and the time to maximum concentration (Tmax) were determined from the concentration-time profiles. Effect of ethanol on EVG AUCtot and Cmax were compared using unpaired t test with Welch's correction. Tmax values were compared using Wilcoxon rank-sum test. All other data involving more than two groups were compared by one way ANOVA and multiple comparisons were performed by Tukey’s post hoc test. ANOVA data was presented along with multiplicity adjusted p values for each comparison. All the statistical analyses were done by Prism 6 (GraphPad Software, La Jolla, CA). A p-value ≤ 0.05 among treatment groups was considered significant.

U1 cells [2] = experiment: as above; assay type: in vitro ADME; conditions: for cellular EVG concentration, mean: U1 cells
Description: as §1, §2, §3, §4

HIV-1 replication = experiment: HIV p24 ELISA in culture medium of U1 cells (HIV replication); assay type: cell-based; conditions: 24 hours; for HIV p24 level in culture media, mean (Fig 2): percentage of vehicle control (100%), EVG 5 μM, COBI 2 μM, ethanol 20 mM; for effect on HIV p24 levels compared to control (in words): Fig 5; for HIV p24 level in culture media, mean (Fig 5): percentage of vehicle control, MK-571 50 μM, PSC-833 5 μM
Description: as §1, §2
Influence of the combination of drugs on HIV replication was determined by measurement of HIV p24 levels in the cell culture medium. […] The concentration of p24 in the samples was quantitated by comparing with standards’ absorbance values and reported in percentage of control. The vehicle-treated samples were used as control and set as 100%.

CYP3A4 = experiment: In-Cell Western analysis of CYP3A4 protein expression in U1 cells; assay type: cell-based; conditions: 24 hours; for change in CYP3A4 expression compared to control (in words): U1 cells; for CYP3A4 fluorescence signal intensity, mean (Fig 3A): relative response compared to vehicle controls, normalized to β-actin
Description: (§5) Detecting low levels of protein expression in native cells using traditional Western blotting can be difficult and therefore some studies successfully used In-Cell Western blotting (ICW) to quantify minor alterations in protein expression. We used manufacturer recommended (LI-COR Biosciences, NE) protocol in this study to perform ICW. U1 cells (0.03x10^6) were plated in sterile 96-well plates and differentiated with 100 nM PMA for 72 hours at 37°C in a humidified incubator while maintaining 5% CO2 air flow. On the day of treatment, each well was flushed with sterile PBS (250 μl) followed by addition of a 250 μl RPMI media containing various combinations of drugs previously mentioned. These plates were incubated for 24 hours prior to fixation. Medium from each well was removed by careful aspiration and cells were immediately fixed by addition of cold (-20°C) methanol (200 μl) followed by incubation of the plate at ambient temperature for 10 minutes with gentle shaking. Following incubation, methanol was carefully removed and wells were gently rinsed thrice with PBS (200 μl). After the last rinse, blocking was done by adding a 150 μl of Li-Cor blocking buffer and incubating the plate at room temperature with gentle shaking for 1.5 hours. Meanwhile, the primary antibodies were diluted in Li-Cor Odyssey blocking buffer using following dilutions: 3A4 (Rabbit Pab, Abcam # ab3572) 1: 200; MRP1 (mouse mab, Millipore # MAB4100) 1:50; MDR1(mouse mab, Millipore # MAB4334) 1:50; β-Actin (Mouse mAb Cell Signaling # 3700) 1:2000; β-Actin (Rabbit mAb Cell Signaling # 4970) 1:200. After blocking, 50 μl of desired antibody added to test wells and incubated overnight at 4°C with gentle shaking. On the following day, wells were washed five times with 200 μl PBS containing Tween-20 (0.1%) for 5 minutes at room temperature with gentle shaking. Secondary antibodies, goat anti-Mouse Mab (Li-Cor # 926–68170) and goat anti-Rabbit Mab (Li-Cor # 827–08365) were diluted in 1:1000 ratio in blocking buffer (0.2% -Tween-20, 0.01% SDS). After the final wash, wells were incubated with 50 μl of secondary antibody mixture for 1 hour in the dark at room temperature. After five washes, plates were scanned using Li-Cor Odyssey® SA and analyzed by using Image Studio V4.0 software (LI-COR Biosciences, NE). Background was subtracted from control wells and target protein signal intensities from triplicate wells were normalized to their respective β-actin intensities. Signal intensities were expressed as percent of relative responses (mean ± standard errors of mean) compared to vehicle controls.

MRP1 = experiment: In-Cell Western analysis of MRP1 protein expression in U1 cells; assay type: cell-based; conditions: 24 hours; for change in MRP1 expression compared to control (in words): U1 cells; for MRP1 fluorescence signal intensity, mean (Fig 3B): relative response compared to vehicle controls, normalized to β-actin
Description: as §5

MDR1 = experiment: In-Cell Western analysis of MDR1 protein expression in U1 cells; assay type: cell-based; conditions: 24 hours; for change in MDR1 expression compared to control (in words): U1 cells; for MDR1 fluorescence signal intensity, mean (Fig 3C): relative response compared to vehicle controls, normalized to β-actin
Description: as §5

U1 cells [3] = experiment: Intracellular elvitegravir concentration in the presence of MRP1 or MDR1 inhibitors and cobicistat + ethanol; assay type: in vitro ADME; conditions: cells co-treated with EVG+COBI+ethanol (control), 24 hours
Description: as §2

[4] = design: method as in PMID 10817729; conditions: ethanol 0.7 g/kg with 600 mg of abacavir, 25 male HIV-infected individuals; cited from earlier work

Row | Structure (SMILES) | HIV p24 level in culture media, mean (Fig 2) (HIV-1 replication) | change in CYP3A4 expression compared to control (in words) (CYP3A4) | CYP3A4 fluorescence signal intensity, mean (Fig 3A) (CYP3A4) | change in MRP1 expression compared to control (in words) (MRP1) | MRP1 fluorescence signal intensity, mean (Fig 3B) (MRP1) | change in MDR1 expression compared to control (in words) (MDR1) | MDR1 fluorescence signal intensity, mean (Fig 3C) (MDR1) | effect on HIV p24 levels compared to control (in words) (HIV-1 replication; U1 cells) | HIV p24 level in culture media, mean (Fig 5) (HIV-1 replication) | other results
1 | COc1cc2c(cc1Cc1cccc(Cl)c1F)c(=O)c(C(=O)O)cn2[C@H](CO)C(C)C [EVG, elvitegravir] | 70.3% | no change | 104.7% | no effect | 100% | no influence | 91.21% |  |  | Cmax at 5 μM ([1]; EVG 5 μM, COBI 2 μM, ethanol 20 mM, mean ± SEM): 82 ± 4 µM; Tmax at 5 μM ([1]; median (range)): 12 h; cellular EVG concentration, mean (U1 cells [2]; 0.5 hours): 41.39 μM/mg of protein; cellular EVG concentration, mean (U1 cells [2]; 1 hour): 51.13 μM/mg of protein; cellular EVG concentration, mean (U1 cells [2]; 3 hours): 59.00 μM/mg of protein; cellular EVG concentration, mean (U1 cells [2]; 6 hours): 66.27 μM/mg of protein; cellular EVG concentration, mean (U1 cells [2]; 12 hours): 78.01 μM/mg of protein; cellular EVG concentration, mean (U1 cells [2]; 24 hours): 72.02 μM/mg of protein; AUCtot (U1 cells [2]; intracellular EVG in PMA-differentiated U1 cells, 0 to 24 hours, EVG 5 μM, COBI 2 μM, ethanol 20 mM, mean ± SEM): 1733 ± 122 μMXh/mg; mean exposure (AUCtot) (U1 cells [2]; intracellular EVG in U1 cells): 1733 ± 122 µM·h/mg; reduction of HIV p24 levels (HIV-1 replication; U1 cells, compared to vehicle): 30%
2 | C/C=C/C[C@@H](C)C(=O)[C@H]1C(=O)N[C@@H](C(C)C)C(=O)N(C)CC(=O)N(C)[C@@H](CC(C)C)C(=O)N[C@@H](C(C)C)C(=O)N(C)[C@@H](CC(C)C)C(=O)N[C@@H](C)C(=O)N[C@H](C)C(=O)N(C)[C@@H](CC(C)C)C(=O)N(C)[C@@H](CC(C)C)C(=O)N(C)[C@@H](C(C)C)C(=O)N1C [PSC-833] |  |  |  |  |  |  |  | did not show any effect | 98.57% | effect on intracellular EVG concentration (in words) (U1 cells [3]): no significant effect
3 | Nc1nc(NC2CC2)c2ncn([C@H]3C=C[C@@H](CO)C3)c2n1 [abacavir] |  |  |  |  |  |  |  |  |  | increase in half-life with ethanol consumption [4]: 26%; increase in maximum concentration with ethanol consumption [4]: 15%; increase in total exposure with ethanol consumption [4]: 41%
4 | CN(C)C(=O)CCSC(SCCC(=O)O)c1cccc(/C=C/c2ccc3ccc(Cl)cc3n2)c1 (centres unmarked) [MK-571] |  |  |  |  |  |  |  | did not show any effect | 104.1% | 
5 | CCO [EtOH, ethanol] | 135.4% | significant induction | 167.5% | upregulated | 167.2% | significant induction | 128% |  | 135.4% | increase in HIV p24 levels compared to vehicle control (HIV-1 replication; U1 cells): 35%
